The values below come from US20250019369A1, “N-(4-aminocyclohexyl)pyrimidine-4-carboxamide derivatives as CD38 inhibitors” (Cerevance, Inc., priority 2021, published 2025).

Like-named read-outs stand apart in the source and are kept apart here.

For orientation: IC50 means the point on the concentration scale where inhibition reaches its midpoint.

The target in one data set is Recombinant mouse CD38 (Mus musculus (Mouse), UniProt P56528). In words: Mouse CD38 hydrolase assay (fluorescence, ε-NAD substrate). It is filed as biochemical. Conditions: recombinant mouse CD38 0.4 nM, 12 μM ε-NAD, 30 min preincubation at 25° C., pH 7.4. The method, then: The ability of test compounds to inhibit mouse CD38 hydrolase activity was measured in a fluorescence-based assay using non-physiological NAD^+ substrate analogue 1,N^6-etheno NAD^+ (ε-NAD). Recombinant mouse CD38 (0.4 nM) was preincubated with test compounds in 384-well black microplates for 30 min at 25° C. in PBS (—Ca^2+/Mg^2+) containing 0.005% BSA (pH 7.4). CD38 hydrolase activity was initiated by addition of 12 μM ε-NAD, which yields the fluorescent product 1,N^6-etheno ADP-ribose. Formation of fluorescent product was followed using ClarioStar Plus (BMG) microplate reader by reading fluorescence (excitation λ=300 nm; emission λ=410 nm) at two time points, one immediately after substrate addition (t=0) and one at 6 min (t=6).
Chain of Recombinant mouse CD38 (P56528 whole entry): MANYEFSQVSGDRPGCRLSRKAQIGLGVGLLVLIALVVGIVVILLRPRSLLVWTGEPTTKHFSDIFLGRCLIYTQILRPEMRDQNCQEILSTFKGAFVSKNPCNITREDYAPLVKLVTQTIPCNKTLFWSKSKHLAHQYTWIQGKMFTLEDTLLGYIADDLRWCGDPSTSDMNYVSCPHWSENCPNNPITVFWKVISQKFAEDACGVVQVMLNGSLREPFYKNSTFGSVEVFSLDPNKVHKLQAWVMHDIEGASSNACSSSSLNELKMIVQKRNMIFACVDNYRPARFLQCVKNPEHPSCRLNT
Data was analysed by subtracting the values detected at t=0 from t=6 to correct for variation in baseline fluorescence, and fluorescence values were converted to percent inhibition using the average of high signal (CD38 and ε-NAD) and low signal (CD38 and ε-NAD in the presence of a tool CD38 inhibitor) control wells. IC50 values were determined from a 10-point, half log concentration response curve with a four-parameter logistic equation.

Data set [1] is described as follows: Tissue binding assay, brain homogenate (equilibrium dialysis). Format: in vitro ADME. Conditions: dialysis 4 hours at 37° C., dilution factor 4. The method, then: Buffer preparation. A basic solution was prepared by dissolving 14.2 g/L Na2HPO4 and 8.77 g/L NaCl in deionized H2O. An acidic solution was prepared by dissolving 15.6 g/L NaH2PO4·2H2O and 8.77 g/L NaCl in deionized H2O. Using the acidic solution, the basic solution was then titrated to pH 7.4±0.1 and stored at 4° C. for up to 1 month. The stop solution was 100% CH3CN containing 200 ng/mL tolbutamide, 200 ng/mL labetalol and 50 ng/mL metformin.
Test method. Dialysis membrane strips were soaked in ultra-pure water at room temperature for ˜1 hour. Each membrane strip containing 2 membranes was separated and soaked in 20:80 EtOH/H2O (v/v) for ˜20 min, after which they were ready for use or were stored in the solution at 2-8° C. for up to 1 month. Prior to the experiment, the membrane was rinsed and soaked for 20 min in ultra-pure water. On the day of experiment, brain homogenate was thawed in a water bath at room temperature and incubated at 37° C. for 10 min before use. Test and control compounds were dissolved in DMSO to achieve 10 mM stock solutions. DMSO working solutions were prepared at 400 μM by diluting 10 μL of stock solution. To prepare the time zero (t=0) samples to be used for recovery determination, 50 μL aliquots of loading matrix were transferred in triplicate to the sample collection plate. The samples were immediately matched with opposite blank buffer to obtain a final volume of 100 μL of 1:1 matrix/dialysis buffer (v/v) in each well. 500 μL of stop solution were added to these t=0 samples. They were then stored at 2-8° C. pending further processes along with other post-dialysis samples. To load the dialysis device, an aliquot of 150 μL of the loading matrix was transferred to the donor side of each dialysis well in triplicate, and 150 μL of the dialysis buffer was loaded to the receiver side of the well. The dialysis plate was placed in a humidified incubator at 37° C. with 5% CO2 on a shaking platform that rotated slowly (about 100 rpm) for 4 hours. At the end of the dialysis, aliquots of 50 μL of samples were taken from both the buffer side and the matrix side of the dialysis device. These samples were transferred into new 96-well plates. Each sample was mixed with an equal volume of opposite blank matrix (buffer or matrix) to reach a final volume of 100 μL of 1:1 matrix/dialysis buffer (v/v) in each well. All samples were further processed by adding 500 μL of stop solution containing internal standards. The mixture was vortexed and centrifuged at 4000 rpm for about 20 min. An aliquot of 100 μL of supernatant of all the samples was then removed for LC-MS/MS analysis. The single blank samples were prepared by transferring 50 μL of blank matrix to a 96-well plate and adding 50 μL of blank PBS buffer to each well. Then the matrix-matched samples were further processed by adding 500 μL of stop solution containing internal standards, following the same sample processing method as the dialysis samples.
Data analysis. The % undiluted unbound, % undiluted bound and % recovery were calculated using the following equations:
% Undiluted Unbound=100*1/D/((1/(F/T)−1)+1/D)
% Undiluted Bound=100−% Undiluted Unbound
where F is the analyte concentration or peak area ratio of analyte/internal standard on the buffer (receiver) side of the membrane; T is the analyte concentration or peak area ratio of analyte/internal standard on the matrix (donor) side of the membrane; To is the analyte concentration or the peak area ratio of analyte/internal standard in the loading matrix sample at time zero; and D is the dilution factor determined as 4 in this assay.
(Equilibrium dialysis compares concentrations on both sides of a semipermeable membrane.)

A short description of data set [2]: PK brain permeability in C57BL/6 mice after single oral gavage. It is filed as in vivo. To be noted: 2 hours post dose; for concentration at 2 h / Kpu,u (unbound brain/plasma partition coefficient) at 2 h: male, C57BL/6, mouse; for concentration at 2 h: po, 10 mg/kg; for Kpu,u (unbound brain/plasma partition coefficient) at 2 h / brain permeability (in words): oral 10 mg/kg; for Kpu,u (unbound brain/plasma partition coefficient) at 2 h: read-out: Kpu,u (unbound partitioning coefficient, Cb,u/Cp,u); for brain permeability (in words): comment on Table 3. Here is the method:
The distribution of compounds into the brain in vivo was determined in C57BL/6 mice following single oral (po) gavage administration.
Test compounds were formulated at 1 mg/mL in 0.5% HPMC E4 M, 0.2% Tween 80 in water to achieve solutions or homogenous suspensions suitable for po administration.
Formulations were administered to 3 male C57BL/6 mice at a volume of 10 mL/kg resulting in a dose level of 10 mg/kg. Blood samples were collected at 1 and 2 hours post dose into tubes containing K2EDTA as anticoagulant, processed to plasma and stored at −60° C. or lower until LC-MS/MS analysis. Brains were harvested 2 hours post dose, rinsed with saline, dried, weighed and homogenised under ice cold conditions. Brain homogenates were stored at −60° C. or lower until LC-MS/MS analysis.
Dose formulation concentrations were verified using a LC-UV or LC-MS/MS method. Test compound concentrations in plasma and brain homogenate were quantitatively determined using LC-MS/MS methods developed in individual matrices against calibration curves with QC samples included and acceptance criteria as per CRO SOPs. Concentrations in brain homogenate were corrected for the dilution factor used to prepare the homogenate to give concentrations in whole brain tissue.
Plasma and brain concentration versus time data were reported and plotted in excel. The brain to plasma ratio at 2 hours post dose was calculated for each animal using the following equation:
Brain:plasma=brain concentration (ng/g) at 2 h/plasma concentration (ng/mL) at 2 h
As only unbound test compound is available to exert an effect on the target, unbound plasma (Cp,u) and unbound brain (Cb,u) concentrations were calculated by correcting the total concentrations for the unbound fraction in plasma (fu,p) or brain (fu,b) determined from in vitro plasma protein or brain tissue binding assays using the following equations: […]
The unbound partitioning coefficient (Kpu,u) was then calculated based on the ratio of Cb,u to Cp,u using the following equation: […]
In these studies, mice were orally administrated a 10 mg/kg dose and sacrificed 2 hours post dose and tissue samples (brain homogenate and plasma) were analyzed subsequently as described above.

[3] abbreviates: brain, read-out: total brain conc.
Setting [4] is: brain, total corrected for unbound fraction in brain, read-out: free brain conc.
[5] abbreviates: plasma, read-out: total plasma conc.
The mark [6] stands for this setting: plasma, total corrected for unbound fraction in plasma, read-out: free plasma conc.

As to `Cc1cc(C(=O)N[C@H]2CC[C@H](N3CCC(F)(F)C3)CC2)nc(-n2ccnc2)n1` [Example 10, N-((1r,4r)-4-(3,3-difluoropyrrolidin-1-yl)cyclohexyl)-2-(1H-imidazol-1-yl)-6-methyl-pyrimidine-4-carboxamide], on Recombinant mouse CD38, the IC50 is ≤ 40 nM. Besides, the “Mouse brain (% unbound)” value in data set [1] is given as 9.7 % unbound. The concentration at 2 h was found to be 5200 nM in data set [2] (setting [3]), 507 nM in data set [2] (setting [4]), 15100 nM in data set [2] (setting [5]) and 1610 nM in data set [2] (setting [6]). For the same compound, the Kpu,u (unbound brain/plasma partition coefficient) at 2 h in data set [2] amounted to 0.32. The “brain permeability (in words)” value in data set [2] was “excellent brain permeability”.

For `Cc1cc(C(=O)N[C@H]2CC[C@H](NC(C)(C)C(F)(F)F)CC2)nc(-n2ccnc2)n1` [Example 21, 2-(1H-imidazol-1-yl)-6-methyl-N-((1r,4r)-4-((1,1,1-trifluoro-2-methylpropan-2-yl)amino)cyclohexyl)pyrimidine-4-carboxamide], the IC50 at Recombinant mouse CD38 is ≤ 40 nM. In data set [1], the “Mouse brain (% unbound)” value is 3.6 % unbound. Also, the concentration at 2 h in data set [2] (setting [3]) is 5470 nM; in data set [2] (setting [4]), 197 nM; in data set [2] (setting [5]) it was 11900 nM; in data set [2] (setting [6]) it was 494 nM. The Kpu,u (unbound brain/plasma partition coefficient) at 2 h in data set [2] came out at 0.4. Besides, in data set [2], the “brain permeability (in words)” value is “excellent brain permeability”.

With `O=C(N[C@H]1CC[C@H](NCC(F)F)CC1)c1cc(C2CC2)nc(-n2ccnc2)n1` [Example 3, 6-cyclopropyl-N-((1r,4r)-4-((2,2-difluoroethyl)amino)cyclohexyl)-2-(1H-imidazol-1-yl)pyrimidine-4-carboxamide], at Recombinant mouse CD38, the IC50 was ≤ 40 nM. Also, in data set [1], the “Mouse brain (% unbound)” value is reported as 13.5 % unbound. Also, the concentration at 2 h was found to be 1660 nM in data set [2] (setting [3]), 224 nM in data set [2] (setting [4]), 6390 nM in data set [2] (setting [5]) and 469 nM in data set [2] (setting [6]). Further, the Kpu,u (unbound brain/plasma partition coefficient) at 2 h in data set [2] worked out at 0.48.

With `Cc1cc(C(=O)N[C@H]2CC[C@H](NCC(F)(F)F)CC2)nc(-n2ccnc2)n1` [Example 1, 2-(1H-imidazol-1-yl)-6-methyl-N-((1r,4r)-4-((2,2,2-trifluoroethyl)amino)cyclohexyl)pyrimidine-4-carboxamide], at Recombinant mouse CD38, the IC50 is ≤ 40 nM. Besides, the “Mouse brain (% unbound)” value in data set [1] was 68.9 % unbound. Moreover, the concentration at 2 h in data set [2] (setting [3]) worked out at 5510 nM; in data set [2] (setting [4]), 3800 nM; in data set [2] (setting [5]) it was 21900 nM; in data set [2] (setting [6]), 2850 nM. Besides, the Kpu,u (unbound brain/plasma partition coefficient) at 2 h in data set [2] came to 1.33.

`Cc1cc(C(=O)N[C@H]2CC[C@H](NCC(F)F)CC2)nc(-n2ccnc2)n1` [Example 2, N-((1r,4r)-4-((2,2-difluoroethyl)amino)cyclohexyl)-2-(1H-imidazol-1-yl)-6-methyl-pyrimidine-4-carboxamide]: the IC50 at Recombinant mouse CD38 was ≤ 40 nM. The “Mouse brain (% unbound)” value in data set [1] is reported as 63.4 % unbound. For the same compound, the concentration at 2 h was found to be 2190 nM in data set [2] (setting [3]), 1390 nM in data set [2] (setting [4]), 9370 nM in data set [2] (setting [5]) and 2130 nM in data set [2] (setting [6]). In addition, in data set [2], the Kpu,u (unbound brain/plasma partition coefficient) at 2 h was 0.65.
